Type in all cases: cell-based
The subject of test [1] is primary human T-cells (IL-2 induced proliferation, JAK-1/JAK-3, Stat-5). As to the kind of experiment: Primary Human T-Cell Proliferation Assay Stimulated with IL-2 (CellTiter-Glo). Particulars: Table III Example 4. On the procedure:
In this assay, primary human T-cells derived from peripheral blood and pre-activated through stimulation of the T-cell receptor and CD28, proliferate in culture in response to the cytokine Interleukin-2 (IL-2). This proliferative response is dependent on the activation of JAK1 and JAK3 tyrosine kinases, which phosphorylate and activate the transcription factor Stat-5. The primary human T-cells are incubated with the 2,4-pyrimidinediamine compounds in the presence of IL-2 for 72 hours, and at the assay endpoint intracellular ATP concentrations are measured to assess cell viability. A reduction in cell proliferation compared to control conditions is indicative of inhibition of the JAK kinase pathway.
Primary human T-cells derived from peripheral blood and pre-activated through stimulation of the T-cell receptor and CD28 proliferate in vitro in response to the cytokine Interleukin-2 (IL-2). This proliferative response is dependent on the activation of JAK-1 and JAK-3 tyrosine kinases, which phosphorylate and activate the transcription factor Stat-5.
Human primary T cells were prepared as follows. […] The lymphocytes at the serum: ficoll interface were recovered and washed twice with 5 volumes of PBS. […] The primary T-cells were stimulated for 3 to 4 days, then transferred to a fresh flask and maintained in RPMI with 10% FBS and 40 U/mL IL-2.
Primary T-cells were washed twice with PBS to remove the IL-2 and resuspended in Yssel's medium at 2×10^6 cells/mL. 50 μL of cell suspension containing 80 U/mL IL-2 was added to each well of a flat bottom 96 well black plate. For the unstimulated control, IL-2 was omitted from the last column on the plate. […] 50 μL of 2× compound was added per well in duplicate and the cells were allowed to proliferate for 72 hours at 37° C.
Proliferation was measured using CellTiter-Glo® Luminescent Cell Viability Assay (Promega), which determines the number of viable cells in culture based on quantitation of the ATP present, as an indicator of metabolically active cells. The substrate was thawed and allowed to come to room temperature. After mixing the Cell Titer-Glo reagent and diluent together, 100 μL was added to each well. The plates were mixed on an orbital shaker for two minutes to induce lysis and incubated at room temperature for an additional ten minutes to allow the signal to equilibrate.

For test [2], the system named is IL-4 stimulated CD23 upregulation in human Ramos B cells (JAK-1/JAK-3, Stat-6). As to the kind of experiment: Assay for Ramos B-Cell Line Stimulated with IL-4 (CD23 upregulation, FACS). The settings on record: Table III Example 3. An outline of the steps:
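Log-phase Ramos B cells (5×10^4 per point, RPMI with 5% serum) pre-incubated with compound or DMSO 1 h at 37° C, then stimulated with IL-4 at 50 units/mL final for 20-24 h. CD23 upregulation measured by staining and flow cytometry.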

Test [3] concerns IFNγ induced ICAM-1 (CD54) up-regulation in U937 human monocytic cells (JAK/Stat pathway). As to the kind of experiment: U937 IFNγ ICAM1 FACS Assay. The settings on record: Table III Example 6, 10 ng/mL IFNγ, 18-24 hours. The source says:
A549 lung epithelial cells and U937 cells up-regulate ICAM-1 (CD54) surface expression in response to a variety of different stimuli. Therefore, using ICAM-1 expression as readout, test compound effects on different signaling pathways can be assessed in the same cell type. Stimulation with IL-1β through the IL-1β receptor activates the TRAF6/NFκB pathway resulting in up-regulation of ICAM-1. IFNγ induces ICAM-1 up-regulation through activation of the JAK1/JAK2 pathway. The up-regulation of ICAM-1 can be quantified by flow cytometry across a compound dose curve and EC50 values are calculated. Exemplary assays of this type are described in greater detail in Examples 5 and 6. U937 human monocytic cells up-regulate ICAM-1 (CD54) surface expression in response to a variety of different stimuli. Therefore, using ICAM-1 expression as readout, compound effects on different signaling pathways can be assessed in the same cell type. IFNγ up-regulates ICAM-1 through activation of the JAK/Stat pathway. In this example, the up-regulation of ICAM-1 by IFNγ was assessed. […] The cells were then plated at a concentration of 100,000 cells per 160 μL in 96 well flat bottom plates. The test compounds were then diluted as follows: 10 mM test compound was diluted 1:5 in DMSO (3 μL 10 mM test compound in 12 μL DMSO), followed by a 1:3 serial dilution of test compound in DMSO (6 μL test compound serially diluted into 12 μL DMSO to give 3-fold dilutions). […] For control wells, 4 μL of DMSO was diluted into 76 μL 10% RPMI. […] The cells and compounds were then pre-incubated for 30 minutes at 37° C. with 5% CO2. […] The cells were kept under conditions for stimulation for 18-24 hours at 37° C. with 5% CO2. […] Cells were spun down at 1000 rpm for 5 minutes at 4° C., following which the supernatant was removed. […] The cells were then incubated on ice in the dark for 30 minutes. […] After suspension, the cells were centrifuged at 1000 rpm for 5 min at 4° C. […] Detection was performed using a BD LSR I System Flow Cytometer, purchased from BD Biosciences of San Jose, Calif. The live cells were gated for live scatter and the geometric mean of ICAM-APC was measured (Becton-Dickinson CellQuest software version 3.3, Franklin Lakes, N.J.). Both % live cells and ICAM-1 expression was analyzed. The assays for the test compounds were carried out in parallel with a control compound of known activity.

On to `C#CCNS(=O)(=O)Cc1cccc(Nc2nc(Nc3cccc(S(N)(=O)=O)c3)ncc2F)c1` [Compound I-3, N2-(3-Aminosulfonylphenyl)-5-fluoro-N4-[3-(prop-2-ynylaminosulfonylmethyl)phenyl]-2,4-pyrimidinediamine], for which the IC50 (in general, the concentration needed to halve the response being measured) amounted to 458 nM in test [1] (Homo sapiens, T-cell); 227 nM in test [2] (Homo sapiens, Ramos); 4530 nM in test [3] (Homo sapiens, U-937).
As to `CCS(=O)(=O)NCc1ccc(Nc2nc(Nc3ccc(S(N)(=O)=O)cc3)ncc2F)cc1` [Compound I-8, N2-(4-aminosulfonyl)phenyl-N4-(4-ethylsulfonylaminomethyl)phenyl-5-fluoro-2,4-pyrimidinediamine], the IC50 in test [1] was determined as 275 nM; in test [2] it was 235 nM; in test [3], 3250 nM.
Regarding `CCS(=O)(=O)NCc1ccc(Nc2nc(Nc3cccc(S(N)(=O)=O)c3)ncc2F)cc1` [Compound I-9, N2-(3-aminosulfonyl)phenyl-N4-(4-ethylsulfonylaminomethyl)phenyl-5-fluoro-2,4-pyrimidinediamine], the IC50 in test [1] was 70.2 nM; in test [2], 80.1 nM; in test [3] it was 993 nM.
The corresponding values for `CCS(=O)(=O)NCc1cccc(Nc2nc(Nc3ccc(S(N)(=O)=O)cc3)ncc2F)c1` [Compound I-11, N2-(4-aminosulfonyl)phenyl-N4-(3-ethylsulfonylaminomethyl)phenyl-5-fluoro-2,4-pyrimidinediamine] are 588 nM, 250 nM and 2790 nM.
With `CCS(=O)(=O)NCCc1ccc(Nc2nc(Nc3ccc(S(N)(=O)=O)cc3)ncc2F)cc1` [Compound I-14, N2-(4-aminosulfonyl)phenyl-N4-[4-(2-ethylsulfonylamino)ethyl]phenyl-5-fluoro-2,4-pyrimidinediamine], the 50% inhibitory concentration (IC50) in test [1] is 835 nM; in test [2], 144 nM; in test [3], 5270 nM.
The corresponding values for `CCS(=O)(=O)NCCc1ccc(Nc2nc(Nc3cccc(S(N)(=O)=O)c3)ncc2F)cc1` [Compound I-15, N2-(3-aminosulfonyl)phenyl-N4-[4-(2-ethylsulfonylamino)ethyl]phenyl-5-fluoro-2,4-pyrimidinediamine] are 184 nM, 65.8 nM and 3110 nM.
The matching figures for `CCCN(Cc1ccc(Nc2nc(Nc3cccc(S(N)(=O)=O)c3)ncc2F)cc1)S(=O)(=O)CC` [Compound I-18, N2-(3-aminosulfonyl)phenyl-N4-[4-(N-ethylsulfonyl-N-propylamino)methyl]phenyl-5-fluoro-2,4-pyrimidinediamine]: 272 nM, 107 nM and 1290 nM.
For `CCCN(Cc1ccc(Nc2nc(Nc3ccc(C)c(S(N)(=O)=O)c3)ncc2F)cc1)S(=O)(=O)CC` [Compound I-19, N2-(3-aminosulfonyl-4-methyl)phenyl-N4-[4-(N-ethylsulfonyl-N-propylamino)methyl]phenyl-5-fluoro-2,4-pyrimidinediamine], the IC50 in test [1] was found to be 494 nM; in test [2], 148 nM; in test [3], 1640 nM.
`CCS(=O)(=O)NCc1ccc(Nc2nc(Nc3ccc(S(N)(=O)=O)cc3)ncc2C)cc1` [Compound I-20, N2-(4-aminosulfonyl)phenyl-N4-(4-ethylsulfonylaminomethyl)phenyl-5-methyl-2,4-pyrimidinediamine]: the IC50 in test [1] amounted to 46.1 nM; in test [2], 73.6 nM; in test [3], 621 nM.
The matching figures for `CCS(=O)(=O)NCc1ccc(Nc2nc(Nc3ccc(C)c(S(N)(=O)=O)c3)ncc2C)cc1` [Compound I-22, N2-(3-aminosulfonyl-4-methyl)phenyl-N4-(4-ethylsulfonylaminomethyl)phenyl-5-methyl-2,4-pyrimidinediamine]: 82.2 nM, 25.9 nM and 207 nM.
The corresponding values for `NS(=O)(=O)c1ccc(Nc2ncc(F)c(Nc3ccc(CNS(=O)(=O)C4CC4)cc3)n2)cc1` [Compound I-23, N2-(4-aminosulfonyl)phenyl-N4-(4-cyclopropylsulfonylaminomethyl)phenyl-5-fluoro-2,4-pyrimidinediamine] are 198 nM, 126 nM and 3850 nM.
The corresponding values for `NS(=O)(=O)c1cccc(Nc2ncc(F)c(Nc3ccc(CNS(=O)(=O)C4CC4)cc3)n2)c1` [Compound I-24, N2-(3-aminosulfonyl)phenyl-N4-(4-cyclopropylsulfonylaminomethyl)phenyl-5-fluoro-2,4-pyrimidinediamine] are 32 nM, 59.2 nM and 508 nM.
Regarding `Cc1ccc(Nc2ncc(F)c(Nc3ccc(CNS(=O)(=O)C4CC4)cc3)n2)cc1S(N)(=O)=O` [Compound I-25, N2-(3-aminosulfonyl-4-methyl)phenyl-N4-(4-cyclopropylsulfonylaminomethyl)phenyl-5-fluoro-2,4-pyrimidinediamine], the concentration for half-maximal inhibition (IC50) in test [1] is 63.9 nM; in test [2] it was 69 nM; in test [3], 363 nM.
For `CCS(=O)(=O)N[C@@H](C)c1ccc(Nc2nc(Nc3ccc(C)c(S(N)(=O)=O)c3)ncc2F)cc1` [Compound I-28, N2-(3-aminosulfonyl-4-methyl)phenyl-N4-[4-(1S-ethylsulfonylamino)ethyl]phenyl-5-fluoro-2,4-pyrimidinediamine], the IC50 in test [1] stood at 376 nM; in test [2], 115 nM; in test [3] it was 1110 nM.
The corresponding values for `CCS(=O)(=O)N[C@H](C)c1ccc(Nc2nc(Nc3ccc(C)c(S(N)(=O)=O)c3)ncc2F)cc1` [Compound I-31, N2-(3-aminosulfonyl-4-methyl)phenyl-N4-[4-(1R-ethylsulfonylamino)ethyl]phenyl-5-fluoro-2,4-pyrimidinediamine] are 283 nM, 104 nM and 1020 nM.
The matching figures for `NS(=O)(=O)c1cccc(Nc2ncc(F)c(Nc3cccc(CNS(=O)(=O)C4CC4)c3)n2)c1` [Compound I-33, N2-(3-aminosulfonyl)phenyl-N4-(3-cyclopropylsulfonylaminomethyl)phenyl-5-fluoro-2,4-pyrimidinediamine]: 314 nM, 102 nM and 1410 nM.
With `Cc1cnc(Nc2ccc(S(=O)(=O)Nc3cccnc3)cc2)nc1Nc1ccc(CNS(=O)(=O)C2CC2)cc1` [Compound I-171, N4-(4-cyclopropylsulfonylaminomethyl)phenyl-5-methyl-N2-[4-(3-pyridyl)aminosulfonyl]phenyl-2,4-pyrimidinediamine], the IC50 came to 42300 nM in test [1] and 19500 nM in test [2].

For the origin of these results see US9481654B2, “Compositions and methods for inhibition of the JAK pathway” (Rigel Pharmaceuticals, Inc., priority 2006, dated 2016).
